Source: article PMC10540216, “Activity Guided Azide-methyllysine Photo-trapping for Substrate Profiling of Lysine Demethylases” (Journal of the American Chemical Society, 2023)
Entries after “also recorded” stand apart in the source; their conditions may differ. Where no end group is shown, it is not given here. [ ]: non-standard residue; d: D form. Lys(Me3) = C[N+](C)(C)CCCC[C@H](N)C(=O)O

Test system: KDM4A-E
Assay: Demethylase activity of KDM4 subfamily on peptide substrates (MALDI-TOF MS), result worded for KDM4A-E together
Format: biochemical, human
Conditions: wild-type KDM4A-E, 10 µM enzyme, 10 µM peptide, 1 mM 2OG, 50 mM Tris pH 8, 37°C, three hours

Substance | demethylation by KDM4A-E
AEVTRTAR[Lys(Me3)]QSAQKRVL [compound 16, Nup107-K25me3 peptide] | demethylated by multiple KDM4s; also recorded: robust demethylation
ALMLENLQ[Lys(Me3)]HSTPHAAF [compound 9, ACINUS-K113me3 peptide] | failed to undergo demethylation by KDM4A-E
FNRMPIAR[Lys(Me3)]IIKDGEQH [compound 8, AIFM1-K590me3 peptide] | failed to undergo demethylation; also recorded: not recognized as KDM4 substrates
GGATSSAR[Lys(Me3)]NRWDEPTK [compound 12, SF3B1-K290me3 peptide] | failed to undergo demethylation; also recorded: not recognized as KDM4 substrates
KGPDEAKI[Lys(Me3)]ALLERTGY [compound 11, hnRNPQ-K125me3 peptide] | failed to undergo demethylation by KDM4A-E; also recorded: not recognized as KDM4 substrates
MPSASASR[Lys(Me3)]SQEKPREI [compound 14, SYDC-K9me3 peptide] | not recognized as KDM4 substrates
RSASSNSR[Lys(Me3)]SLSPGVSR [compound 10, Acinus-K654me3 peptide] | demethylated by multiple KDM4s; also recorded: robust demethylation
SRAHSSHLKme3SKKGQSTS [compound 18, P53-K370me3 peptide] | failed to undergo demethylation by KDM4A-E
WENTLHTL[Lys(Me3)]QRQLTSYV [compound 17, NUP107-K305me3 peptide] | failed to undergo demethylation by KDM4A-E

Test system: KDM4A-I71AzF
Assay: CASI: photo-crosslinking with HEK293T cell extracts, StrepTactin enrichment and LC-MS/MS proteomics;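 also: lysates from HEK293T cells pretreated with a KDM4 inhibitor to raise proteome methylation, affinity-purified after ±UV, gel-resolved, trypsin-digested, with exclusive unique peptides per protein averaged per condition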
Format: binding, human
Conditions: sheet "Final results but with 0.01"

Substance | Fold change (+UV/-UV)
ATPB_HUMAN | 0.5789
BRE1A_HUMAN | 0.1667
BRE1B_HUMAN | 0.25
CCAR2_HUMAN | 0.75
CHD4_HUMAN | 0.3333
CLH1_HUMAN | 1
CLPX_HUMAN | 1.5
CMC2_HUMAN | 0.5
COR1C_HUMAN | 0
DESP_HUMAN | 0.2222
DHE3_HUMAN | 1.727
DHSA_HUMAN | 1
DHX9_HUMAN | 0.7895
DNMT1_HUMAN | 0
DOCK7_HUMAN | 0.8
ECHA_HUMAN | 1
ENPL_HUMAN | 1.25
ESYT1_HUMAN | 1
FAS_HUMAN | 0.3889
FILA2_HUMAN | 0.75
FLNA_HUMAN | 0.3571
FTO_HUMAN | 1

Substance | Fold change (+UV/-UV)
G3BP1_HUMAN | 0
G3P_HUMAN | 0.5
GRP75_HUMAN | 0.7931
GRP78_HUMAN | 0.5556
GUAA_HUMAN | 0.6364
H12_HUMAN | 700
HEAT1_HUMAN | 0
HNRPK_HUMAN | 1.273
HNRPU_HUMAN | 0.6
HORN_HUMAN | 0
HS90B_HUMAN | 0.75
HSP7C_HUMAN | 0.7407
HSP71_HUMAN | 0.6154
I2BP2_HUMAN | 0.3333
IF4A1_HUMAN | 200
IF4G1_HUMAN | 0
INT3_HUMAN | 2
K2C4_HUMAN | 10
KCRU_HUMAN | 200
KPYM_HUMAN | 1.667
KRT82_HUMAN | 200
LAMP2_HUMAN | 2

Substance | Fold change (+UV/-UV)
MAOM_HUMAN | 1.714
MCM7_HUMAN | 0.3333
MPRI_HUMAN | 0
MSH6_HUMAN | 0.5
MYH9_HUMAN | 0
NU205_HUMAN | 0.6667
NU214_HUMAN | 2
NUMA1_HUMAN | 0
PABP1_HUMAN | 0.8571
PO210_HUMAN | 0.1538
PRKDC_HUMAN | 0.5
PRP8_HUMAN | 0.32
PTBP1_HUMAN | 1.2
PYR1_HUMAN | 0.125
RBM25_HUMAN | 0
RBP56_HUMAN | 1
RIF1_HUMAN | 1
RRP5_HUMAN | 0
RU17_HUMAN | 1
SCRIB_HUMAN | 3
SMCA5_HUMAN | 0
SP16H_HUMAN | 0.2857

Substance | Fold change (+UV/-UV)
SPTN1_HUMAN | 0
SSRP1_HUMAN | 0
SYEP_HUMAN | 0.6667
SYNM_HUMAN | 1
TBA1B_HUMAN | 0.8182
TCPA_HUMAN | 2
TCPE_HUMAN | 0.3333
TCPG_HUMAN | 4
TCPH_HUMAN | 1.333
TCPZ_HUMAN | 1
TERA_HUMAN | 1.125
TLN1_HUMAN | 0
TPR_HUMAN | 0.6212
U5S1_HUMAN | 0.6
U520_HUMAN | 0.6129
UGGG1_HUMAN | 1
VIME_HUMAN | 0.875
XRCC5_HUMAN | 0.5
XRCC6_HUMAN | 0.3333
YLPM1_HUMAN | 0.6923
ZN207_HUMAN | 1
ZO1_HUMAN | 1
